Data: patent publication US10640506B2, “Cyclobutyl substituted pyrrolopyridine and pyrrolopyrimidines derivatives as JAK inhibitors” (Incyte Corporation, priority 2010, dated 2020)
Counter-ions that a name gives are not always drawn.

Columns and labels:
[1] = target: human JAK1 (a.a. 837-1142) (Homo sapiens, UniProt P23458); assay: In vitro JAK kinase assay (HTRF, phosphorylation of biotinylated peptide), JAK1; format: biochemical; details: Table F; 1 mM ATP
Procedure, shortened: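 His-tagged human JAK1 catalytic domain (a.a. 837-1142), baculovirus/insect-cell expressed, phosphorylates a biotinylated peptide for 1 h at room temperature. Reaction stopped with EDTA; product detected by HTRF (SA-APC, Eu-Py20, 40 min binding). IC50 reported as ranges.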

JAK2 (a.a. 828-1132) = target: T1, JAK2 (a.a. 828-1132) (Homo sapiens, UniProt O60674); assay: In vitro JAK kinase assay (HTRF, phosphorylation of biotinylated peptide), JAK2; format: biochemical; details: Table F; 1 mM ATP
T1 construct: JAK2 (a.a. 828-1132); His tag (N)
T1 sequence (O60674 828-1132): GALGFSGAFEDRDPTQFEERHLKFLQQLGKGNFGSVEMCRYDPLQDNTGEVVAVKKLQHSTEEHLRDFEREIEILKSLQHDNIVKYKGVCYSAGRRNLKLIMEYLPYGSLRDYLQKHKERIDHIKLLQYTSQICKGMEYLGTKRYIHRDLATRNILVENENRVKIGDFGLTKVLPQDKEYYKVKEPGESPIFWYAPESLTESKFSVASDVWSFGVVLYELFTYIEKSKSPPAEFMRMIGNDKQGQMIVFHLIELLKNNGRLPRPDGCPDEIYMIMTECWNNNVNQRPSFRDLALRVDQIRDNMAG
Procedure, shortened: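 His-tagged catalytic domains of human JAK1 (a.a. 837-1142) and JAK2 (a.a. 828-1132), baculovirus-expressed, phosphorylate a biotinylated peptide for 1 hour at room temperature. Stopped with EDTA; detected by HTRF using SA-APC and Eu-Py20 antibody after 40 min binding; values binned as ranges.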

Sequence of human JAK1 (a.a. 837-1142) (P23458 849-1154): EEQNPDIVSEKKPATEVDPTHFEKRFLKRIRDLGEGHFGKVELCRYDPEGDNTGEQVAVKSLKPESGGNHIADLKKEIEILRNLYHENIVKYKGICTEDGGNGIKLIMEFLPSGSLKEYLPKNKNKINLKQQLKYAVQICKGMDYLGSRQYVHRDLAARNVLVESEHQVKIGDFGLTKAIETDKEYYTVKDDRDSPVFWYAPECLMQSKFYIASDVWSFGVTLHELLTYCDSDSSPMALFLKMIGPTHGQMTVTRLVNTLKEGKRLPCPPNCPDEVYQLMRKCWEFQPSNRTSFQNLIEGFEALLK

Row | SMILES | IC50 [1] [nM] | IC50 (JAK2 (a.a. 828-1132)) [nM]
1 | CC(C)N(C)C(=O)N1CCN([C@H]2C[C@](CC#N)(n3cc(-c4ncnc5[nH]ccc45)cn3)C2)CC1 [Example 79, 4-{trans-3-(cyanomethyl)-3-[4-(7H-pyrrolo[2,3-d]pyrimidin-4-yl)-1H-pyrazol-1-yl]cyclobutyl}-N-isopropyl-N-methylpiperazine-1-carboxamide] | 25 to 100 | > 100
2 | CN(C)CCCN(C)C(=O)N1CCN([C@H]2C[C@](CC#N)(n3cc(-c4ncnc5[nH]ccc45)cn3)C2)CC1 [Example 82, 4-{trans-3-(cyanomethyl)-3-[4-(7H-pyrrolo[2,3-d]pyrimidin-4-yl)-1H-pyrazol-1-yl]cyclobutyl}-N-[3-(dimethylamino)propyl]-N-methylpiperazine-1-carboxamide] | 10 to 25 | > 100
3 | CN(CC(F)(F)F)C(=O)N1CCN([C@H]2C[C@](CC#N)(n3cc(-c4ncnc5[nH]ccc45)cn3)C2)CC1 [Example 84, 4-{trans-3-(cyanomethyl)-3-[4-(7H-pyrrolo[2,3-d]pyrimidin-4-yl)-1H-pyrazol-1-yl]cyclobutyl}-N-methyl-N-(2,2,2-trifluoroethyl)piperazine-1-carboxamide] | 25 to 100 | > 100
4 | N#CC[C@]1(n2cc(-c3ncnc4[nH]ccc34)cn2)C[C@H](N2CCN(C(=O)N[C@H]3CC[C@H](O)CC3)CC2)C1 [Example 86, 4-{trans-3-(cyanomethyl)-3-[4-(7H-pyrrolo[2,3-d]pyrimidin-4-yl)-1H-pyrazol-1-yl]cyclobutyl}-N-(trans-4-hydroxycyclohexyl)piperazine-1-carboxamide] | 10 to 25 | 25 to 100
5 | N#CC[C@]1(n2cc(-c3ncnc4[nH]ccc34)cn2)C[C@H](N2CCN(C(=O)N[C@@H]3CCOC3)CC2)C1 [Example 87, 4-{trans-3-(cyanomethyl)-3-[4-(7H-pyrrolo[2,3-d]pyrimidin-4-yl)-1H-pyrazol-1-yl]cyclobutyl}-N-[(3R)-tetrahydrofuran-3-yl]piperazine-1-carboxamide] | 10 to 25 | > 100
6 | N#CC[C@]1(n2cc(-c3ncnc4[nH]ccc34)cn2)C[C@H](N2CCN(C(=O)N3CC[C@H](O)C3)CC2)C1 [Example 91, {trans-3-(4-{[(3S)-3-hydroxypyrrolidin-1-yl]carbonyl}piperazin-1-yl)-1-[4-(7H-pyrrolo[2,3-d]pyrimidin-4-yl)-1H-pyrazol-1-yl]cyclobutyl}acetonitrile] | 25 to 100 | > 100
7 | CC(C)[C@@H](C)NC(=O)N1CCN([C@H]2C[C@](CC#N)(n3cc(-c4ncnc5[nH]ccc45)cn3)C2)CC1 [Example 93, 4-{trans-3-(cyanomethyl)-3-[4-(7H-pyrrolo[2,3-d]pyrimidin-4-yl)-1H-pyrazol-1-yl]cyclobutyl}-N-[(1R)-1,2-dimethylpropyl]piperazine-1-carboxamide] | < 10 | 25 to 100
8 | CC(C)[C@H](C)NC(=O)N1CCN([C@H]2C[C@](CC#N)(n3cc(-c4ncnc5[nH]ccc45)cn3)C2)CC1 [Example 94, 4-{trans-3-(cyanomethyl)-3-[4-(7H-pyrrolo[2,3-d]pyrimidin-4-yl)-1H-pyrazol-1-yl]cyclobutyl}-N-[(1S)-1,2-dimethylpropyl]piperazine-1-carboxamide] | < 10 | 25 to 100
9 | N#CC[C@]1(n2cc(-c3ncnc4[nH]ccc34)cn2)C[C@H](N2CCN(C(N)=O)CC2)C1 [Example 95, 4-{trans-3-(cyanomethyl)-3-[4-(7H-pyrrolo[2,3-d]pyrimidin-4-yl)-1H-pyrazol-1-yl]cyclobutyl}piperazine-1-carboxamide] | < 10 | 25 to 100

Next, values leading:

Row | IC50 [1] [nM] | IC50 (JAK2 (a.a. 828-1132)) [nM] | SMILES
10 | < 10 | 10 to 25 | CC(C)(O)c1cc(C(=O)N2CCN([C@H]3C[C@](CC#N)(n4cc(-c5ncnc6[nH]ccc56)cn4)C3)CC2)nc(C(F)(F)F)c1 [Example 75, {trans-3-(4-{[4-(1-hydroxy-1-methylethyl)-6-(trifluoromethyl)pyridin-2-yl]carbonyl}piperazin-1-yl)-1-[4-(7H-pyrrolo[2,3-d]pyrimidin-4-yl)-1H-pyrazol-1-yl]cyclobutyl}acetonitrile]
11 | < 10 | 10 to 25 | COCc1cc(C(=O)N2CCN([C@H]3C[C@](CC#N)(n4cc(-c5ncnc6[nH]ccc56)cn4)C3)CC2)nc(C(F)(F)F)c1 [Example 76, {trans-3-(4-{[4-(methoxymethyl)-6-(trifluoromethyl)pyridin-2-yl]carbonyl}piperazin-1-yl)-1-[4-(7H-pyrrolo[2,3-d]pyrimidin-4-yl)-1H-pyrazol-1-yl]cyclobutyl}acetonitrile]
12 | < 10 | 25 to 100 | CC(C)(O)c1cc(C(=O)N2CCN([C@H]3C[C@](CC#N)(n4cc(-c5ccnc6[nH]ccc56)cn4)C3)CC2)nc(C(F)(F)F)n1 [Example 78, {trans-3-(4-{[6-(1-hydroxy-1-methylethyl)-2-(trifluoromethyl)pyrimidin-4-yl]carbonyl}piperazin-1-yl)-1-[4-(1H-pyrrolo[2,3-b]pyridin-4-yl)-1H-pyrazol-1-yl]cyclobutyl}acetonitrile]
13 | < 10 | 25 to 100 | CCCN(C)C(=O)N1CCN([C@H]2C[C@](CC#N)(n3cc(-c4ncnc5[nH]ccc45)cn3)C2)CC1 [Example 80, 4-{trans-3-(cyanomethyl)-3-[4-(7H-pyrrolo[2,3-d]pyrimidin-4-yl)-1H-pyrazol-1-yl]cyclobutyl}-N-methyl-N-propylpiperazine-1-carboxamide]
14 | < 10 | 25 to 100 | CCNC(=O)N1CCN([C@H]2C[C@](CC#N)(n3cc(-c4ncnc5[nH]ccc45)cn3)C2)CC1 [Example 81, 4-{trans-3-(cyanomethyl)-3-[4-(7H-pyrrolo[2,3-d]pyrimidin-4-yl)-1H-pyrazol-1-yl]cyclobutyl}-N-ethylpiperazine-1-carboxamide]
15 | < 10 | 25 to 100 | CN(C(=O)N1CCN([C@H]2C[C@](CC#N)(n3cc(-c4ncnc5[nH]ccc45)cn3)C2)CC1)C1CC1 [Example 83, 4-{trans-3-(cyanomethyl)-3-[4-(7H-pyrrolo[2,3-d]pyrimidin-4-yl)-1H-pyrazol-1-yl]cyclobutyl}-N-cyclopropyl-N-methylpiperazine-1-carboxamide]
16 | < 10 | 25 to 100 | CC(C)NC(=O)N1CCN([C@H]2C[C@](CC#N)(n3cc(-c4ncnc5[nH]ccc45)cn3)C2)CC1 [Example 85, 4-{trans-3-(cyanomethyl)-3-[4-(7H-pyrrolo[2,3-d]pyrimidin-4-yl)-1H-pyrazol-1-yl]cyclobutyl}-N-isopropylpiperazine-1-carboxamide]
17 | < 10 | 10 to 25 | N#CC[C@]1(n2cc(-c3ncnc4[nH]ccc34)cn2)C[C@H](N2CCN(C(=O)NC3CCCC3)CC2)C1 [Example 90, 4-{trans-3-(cyanomethyl)-3-[4-(7H-pyrrolo[2,3-d]pyrimidin-4-yl)-1H-pyrazol-1-yl]cyclobutyl}-N-cyclopentylpiperazine-1-carboxamide]
18 | < 10 | 25 to 100 | N#CC[C@]1(n2cc(-c3ncnc4[nH]ccc34)cn2)C[C@H](N2CCN(C(=O)NCC3CC3)CC2)C1 [Example 92, 4-{trans-3-(cyanomethyl)-3-[4-(7H-pyrrolo[2,3-d]pyrimidin-4-yl)-1H-pyrazol-1-yl]cyclobutyl}-N-(cyclopropylmethyl)piperazine-1-carboxamide trifluoroacetate salt]
